Test results as given in article PMC9389255 (Heliyon, 2022).

Experiments:
[1] = Precipitation of DMSO-dissolved compounds upon mixing in phosphate buffer; type: physicochemical
[2] = test system: α-Glucosidase from Saccharomyces cerevisiae; test: In vitro inhibition assay for α-glucosidase activity; type: biochemical
[3] = test system: α-Glucosidase from Saccharomyces cerevisiae; test: Inhibitory kinetic analysis; type: biochemical; details: Lineweaver-Burk plots
[4] = printed in the column IC50 against α-amylase
[5] = printed in the column IC50 against α-glucosidase

Row | Precipitated at (in vial) [1, 4] | Precipitated at (in vial) [1, 5] | inhibition pattern against α-glucosidase [3] | SMILES | further results
1 | Precipitated at 400 μM (in vial) | Precipitated at 400 μM (in vial) |  | O=c1cc(-c2ccccc2)oc2cc(O)cc(O)c12 [Chrysin] | inhibitory activity on α-glucosidase ([2]; at ≤400 μM): no inhibitory activity
2 |  |  | competitive inhibition pattern | C[C@H]1O[C@H](O[C@H]2[C@H](O)[C@@H](O)[C@@H](O[C@H]3[C@H](O)[C@@H](O)C(O)O[C@@H]3CO)O[C@@H]2CO)[C@H](O)[C@@H](O)[C@@H]1N[C@H]1C=C(CO)[C@@H](O)[C@H](O)[C@H]1O (stereo partly shown) [Acarbose, reference compound] | 
3 | Precipitated at 1000 μM (in vial) | Precipitated at 1000 μM (in vial) |  | O=c1cc(-c2ccc(O)cc2)oc2cc(O)cc(O)c12 [Apigenin] | inhibitory activity on α-glucosidase ([2]; at ≤1000 μM): no inhibitory activity
4 |  |  | mixed inhibition patterns | O=c1c(O)c(-c2cc(O)c(O)c(O)c2)oc2cc(O)cc(O)c12 [Myricetin] | 
5 |  |  | mixed inhibition patterns | O=c1cc(-c2ccc(O)c(O)c2)oc2cc(O)cc(O)c12 [Luteolin] | 
6 | Precipitated at 80 μM (in vial) | Precipitated at 80 μM (in vial) |  | O=c1c(O)c(-c2ccc(O)cc2)oc2cc(O)cc(O)c12 [Kaempferol] | inhibitory activity on α-glucosidase ([2]; at ≤80 μM): no inhibitory activity
7 |  |  | mixed inhibition patterns | O=c1c(O)c(-c2ccc(O)c(O)c2)oc2cc(O)cc(O)c12 [Quercetin] | 
